The values below come from US10092568B2, “CBP/Catenin antagonists for enhancing asymmetric division of somatic stem cells” (University of Southern California, priority 2010, dated 2018).

In data set [1] the test system is p300/beta-catenin interaction. Nature of the data set: Disruption of the p300/beta-catenin interaction. Format: biochemical. The source says: (§1) Applicant next mapped the binding domains between CBP and beta-catenin, as well as between p300 and beta-catenin. The C-terminal trans-activating region of beta-catenin (647-781) interacted with the same 1-111 amino acids of both CBP and p300 (23). However, only the interaction between CBP and beta-catenin was disrupted by ICG-001, and not the p300/beta-catenin interaction.
IQ-1. In addition to ICG-001, a screen of a large chemical library for maintenance of pluripotency in mES cells led to the identification of another compound, termed IQ-1 (FIG. 2b). […] I-Q-1 diminishes the interaction between p300 and beta-catenin thereby increasing the CBP/beta-catenin interaction (24).

In a further data set the test system is mice. The experiment in a line: Topical treatment of mothers throughout pregnancy, offspring development. Format: in vivo, mouse. The conditions noted are these: mothers treated topically, 0.5M, conception to birth. The source says:
Acute Promyelocytic Leukemia (APL) is unique among myeloid leukemias due to its sensitivity to all-trans retinoic acid (ATRA), a derivative of vitamin A. Treatment with ATRA dissociates the NCOR-HDACL complex from RAR and allows DNA transcription and differentiation of the immature leukemic promyelocytes into mature granulocytes by targeting the oncogenic transcription factor and its aberrant action. […] A large number of scientific studies have also investigated a possible role for vitamin D in cancer prevention, including colon, prostate, breast, pancreatic and skin cancer. […] However, there are also reports of synergistic effects on the activation of gene expression by ATRA and Wnt for example (47). […] This is the same region of these coactivator proteins (i.e., CBP and p300) that partners with catenin (both beta and gamma) and the CBP/catenin antagonists (e.g., ICG-001) also bind to this region. These nuclear receptor ligands have many of the same differentiating effects on stem cell populations that applicant has observed with specific CBP/catenin antagonists. Although, both Vitamin A and D are required during development and have many beneficial health effects in adulthood, both are teratogenic at high levels. […]

The subject of the next data set is SW620 xenograft. The experiment in a line: Nude mouse SW620 xenograft model of colon cancer. Format: in vivo. The source says:
Cancer. The importance of Wnt signaling in colorectal cancer is undisputed. Applicant's investigation on the therapeutic utility of ICG-001 therefore quite naturally began with colon cancer.

A further data set has as its system Colorectal cancer cells. The experiment in a line: ChIP and message of Wnt/beta-catenin target genes in colorectal cancer cells. Format: cell-based. The protocol: The effects of CBP/catenin antagonism on Wnt target genes are highly promoter specific. Colorectal cancer cells were treated with ICG-001, thereby disrupting the CBP/catenin interaction, and then examined for coactivator occupancy at the promoter regions of several Wnt/beta-catenin regulated target genes using a Chromatin Immuno-precipitation Assay (ChIP), a technique that allows one to determine what proteins are associated with a particular promoter. […] Furthermore, there are other Wnt/catenin-regulated genes that selectively utilize p300 for transcriptional coactivation. An interesting example of this differential coactivator usage concerns the expression of the gene EphB2, a known Wnt/TCF/beta-catenin target gene. As almost 90% of colon cancers have high aberrant Wnt/TCF/beta-catenin activation, it would follow that EpHB2 expression would be increased with colon cancer disease progression. This, however, is not the case as EphB2 expression is generally lost in late stage colorectal cancers (34). Furthermore, disruption of EphB2 in the Min mouse, which carries a defective APC tumor suppressor gene, results in highly invasive carcinomas as opposed to the normal adenomas.

The test system of data set [2] is rat type II lung epithelial cells. Nature of the data set: TGF-β1-induced EMT genes in lung epithelial cells. Format: cell-based. The source says:
Fibrosis. Idiopathic pulmonary fibrosis (IPF)/usual interstitial pneumonia (UIP), the most common of the idiopathic interstitial pneumonias, is a devastating, progressive disorder characterized by excessive fibroblast proliferation and extracellular matrix remodeling leading to lung destruction. There is currently no effective therapy for this uniformly fatal disease. An emerging paradigm proposes a central role for alveolar epithelial cell injury and dysregulated repair in the pathogenesis of IPF. Injury to the epithelium is thought to initiate a cascade of fibroblast activation and matrix deposition, which in predisposed hosts fails to resolve as it would in the course of normal wound repair. Epithelial cells undergo excessive apoptosis, whereas fibroblasts are less amenable to apoptosis and manifest increased survival. The well-characterized model of bleomycin-induced lung injury has been extensively used to investigate potential pathways involved in the pathogenesis of pulmonary fibrosis and to explore therapeutic approaches.

The target of data set [3] is CBP/beta-catenin interaction (Homo sapiens, UniProt Q92793). The experiment in a line: Disruption of the CBP/beta-catenin interaction. Format: biochemical.
From the text: as §1

In data set [4] the test system is Wnt/catenin transcription (TOPFLASH) in SW480 colon carcinoma cells. The experiment in a line: TOPFLASH TCF/catenin luciferase reporter in SW480 colon carcinoma cells. Format: cell-based. The conditions noted are these: Homo sapiens. The source says:
ICG-001. Applicant's pharmacologic tools were identified using cell-based forward chemical genomic screens of small molecule secondary structure template chemical libraries (22).
(In general: A reporter such as luciferase makes a cellular process visible.)

The subject of data set [5] is PC-12 cells with mutant PS-1 (L286V). Nature of the data set: Neuronal differentiation of PC-12 cells with FAD mutant PS-1 (L286V). Format: cell-based. The source says:
However, the effects of PS-1 mutations on the stability of beta-catenin, TCF/beta-catenin signaling, and thereby its potential role in AD remain controversial. Applicant has shown that introduction of a FAD mutant PS-1 (L286V) into PC-12 cells causes increased TCF/beta-catenin signaling, leading to the inhibition of neurite outgrowth. […] In the CNS, EpB2 expression is associated with axonal guidance (16). […] In initial in vivo studies, applicant treated penta-transgenic mice that over express mutant APP (695) (Swedish (K670N, M671L), Florida (I716V) and London (V717I)) and PS-1 (M146L and L286V) mutations with ICG-001 for 2 months (months 2-4). These mice normally develop massive cerebral deposition of Aβ starting at 6 weeks of age.

CBP/beta-catenin interaction, sequence (Q92793 whole entry): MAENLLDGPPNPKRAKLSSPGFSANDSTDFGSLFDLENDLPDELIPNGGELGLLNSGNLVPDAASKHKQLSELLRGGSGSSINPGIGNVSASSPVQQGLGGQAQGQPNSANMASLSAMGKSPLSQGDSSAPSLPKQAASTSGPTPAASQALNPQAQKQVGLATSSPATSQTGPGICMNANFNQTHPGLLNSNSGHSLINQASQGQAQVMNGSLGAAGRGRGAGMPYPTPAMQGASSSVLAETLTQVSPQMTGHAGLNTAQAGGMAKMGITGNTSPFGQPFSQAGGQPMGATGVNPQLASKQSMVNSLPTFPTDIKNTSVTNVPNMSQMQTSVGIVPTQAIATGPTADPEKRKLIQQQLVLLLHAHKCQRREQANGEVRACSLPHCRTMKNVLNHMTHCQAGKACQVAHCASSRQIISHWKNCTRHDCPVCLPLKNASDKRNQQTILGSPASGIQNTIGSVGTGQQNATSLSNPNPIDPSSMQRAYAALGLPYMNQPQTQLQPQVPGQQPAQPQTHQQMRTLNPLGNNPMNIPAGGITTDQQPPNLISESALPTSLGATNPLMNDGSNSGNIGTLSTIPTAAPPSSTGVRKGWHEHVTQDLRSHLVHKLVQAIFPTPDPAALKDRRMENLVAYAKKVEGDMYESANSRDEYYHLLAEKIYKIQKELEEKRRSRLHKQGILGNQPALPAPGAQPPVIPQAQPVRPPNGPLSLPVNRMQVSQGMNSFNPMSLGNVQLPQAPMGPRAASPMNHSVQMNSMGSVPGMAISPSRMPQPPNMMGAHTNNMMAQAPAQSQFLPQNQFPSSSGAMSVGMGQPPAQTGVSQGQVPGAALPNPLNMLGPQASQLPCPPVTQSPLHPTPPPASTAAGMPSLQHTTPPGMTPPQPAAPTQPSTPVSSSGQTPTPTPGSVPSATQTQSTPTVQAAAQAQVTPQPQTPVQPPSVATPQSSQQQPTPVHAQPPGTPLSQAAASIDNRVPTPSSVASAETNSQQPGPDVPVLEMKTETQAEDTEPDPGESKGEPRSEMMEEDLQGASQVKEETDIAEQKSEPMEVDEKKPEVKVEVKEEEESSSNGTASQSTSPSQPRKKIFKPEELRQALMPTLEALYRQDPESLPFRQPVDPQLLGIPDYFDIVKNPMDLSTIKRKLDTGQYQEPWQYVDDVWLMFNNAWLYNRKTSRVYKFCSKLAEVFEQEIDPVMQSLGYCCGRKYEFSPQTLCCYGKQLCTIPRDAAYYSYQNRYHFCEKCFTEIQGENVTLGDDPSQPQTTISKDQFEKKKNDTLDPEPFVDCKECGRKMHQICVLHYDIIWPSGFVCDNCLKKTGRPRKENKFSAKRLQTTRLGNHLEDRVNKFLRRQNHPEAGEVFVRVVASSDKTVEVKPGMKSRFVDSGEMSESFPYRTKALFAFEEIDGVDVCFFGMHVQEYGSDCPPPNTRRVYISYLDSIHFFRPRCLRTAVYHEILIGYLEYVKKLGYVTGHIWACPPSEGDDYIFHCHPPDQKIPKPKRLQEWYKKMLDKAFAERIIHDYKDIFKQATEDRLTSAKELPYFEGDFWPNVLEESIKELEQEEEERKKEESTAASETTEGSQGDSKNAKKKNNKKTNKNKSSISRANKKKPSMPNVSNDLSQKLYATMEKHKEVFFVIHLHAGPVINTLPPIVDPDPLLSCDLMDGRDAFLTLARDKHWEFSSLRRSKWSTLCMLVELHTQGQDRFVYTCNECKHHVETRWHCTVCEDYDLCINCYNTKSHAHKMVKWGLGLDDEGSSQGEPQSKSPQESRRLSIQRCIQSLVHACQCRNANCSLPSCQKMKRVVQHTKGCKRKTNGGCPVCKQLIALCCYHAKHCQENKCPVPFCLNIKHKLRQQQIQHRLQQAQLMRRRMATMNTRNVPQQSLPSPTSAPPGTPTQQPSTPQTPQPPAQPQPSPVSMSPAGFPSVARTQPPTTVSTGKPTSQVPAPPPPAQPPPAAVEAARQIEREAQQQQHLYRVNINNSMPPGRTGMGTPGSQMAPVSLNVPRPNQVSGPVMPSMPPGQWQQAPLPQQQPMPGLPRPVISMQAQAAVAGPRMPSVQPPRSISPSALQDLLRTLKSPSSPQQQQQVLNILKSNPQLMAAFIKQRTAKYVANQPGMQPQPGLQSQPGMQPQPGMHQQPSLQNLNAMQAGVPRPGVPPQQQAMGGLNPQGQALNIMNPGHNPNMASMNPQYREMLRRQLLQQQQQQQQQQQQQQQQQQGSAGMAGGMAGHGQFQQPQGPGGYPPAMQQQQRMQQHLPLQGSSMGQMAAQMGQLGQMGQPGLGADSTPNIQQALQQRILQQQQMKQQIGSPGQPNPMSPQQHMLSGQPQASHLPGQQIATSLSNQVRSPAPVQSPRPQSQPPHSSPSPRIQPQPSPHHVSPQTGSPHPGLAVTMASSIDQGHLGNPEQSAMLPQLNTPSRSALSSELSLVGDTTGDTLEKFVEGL

In the case of `O=C1[C@H](Cc2ccc(O)cc2)N2C(=O)CCN(C(=O)NCc3ccccc3)[C@H]2CN1Cc1cccc2ccccc12` [ICG-001], the p300/beta-catenin interaction result in data set [1] is recorded as “without affecting”. Moreover, in the data set on mice, the fertility of offspring entry was “could breed a second generation”; the “weight and size of offspring at 6 weeks of age” value is “normal weight and size”. The tumor growth entry with SW620 xenograft is listed as “reducing tumor growth”. In addition, the “expression of EphB2” value in the data set on Colorectal cancer cells (colon cancer cells) is on record as “increasing the expression”. Also, in the data set with Colorectal cancer cells (colorectal cancer cells), the c-myc message result is “slight increase in message”, the “cyclin D1 message” value was “decrease in message” and the survivin message result was “decreased message”. Besides, the “TGF-β1-induced up-regulation of α-SMA and type I collagen” value in data set [2] is reported as “prevents”. Besides, in data set [3], the “interaction between CBP and beta-catenin” value was “disrupted”. Further, in data set [4], the IC50 was determined as 30 µM. In data set [5], the EpB2 expression result is recorded as “again increased”; the “neuronal differentiation and neurite outgrowth” value is “rescues the defects”. Further, the “expression of GAP43” value in data set [5] (NGF-induced differentiation) is “dramatically increased”.

As usually defined, the IC50 is the concentration at which inhibition is half-maximal.
